{"source": "patent US5554637A", "about": "“Use of leflunomide for inhibiting interleukin 1 alpha” (priority 1993, dated 1996)", "key": {"[1]": {"system": "cytokines", "experiment": "synthesis and liberation of cytokines from human blood cells", "format": "cell-based", "settings": "in words", "experimental": "The cell fraction which was visible as a white ring at the phase boundary was withdrawn with the aid of a syringe, diluted 1:1 (v/v) with PM-16 buffer (from Serva Feinbiochemica GmbH & Co. KG, Heidelberg) and then centrifuged, as above, for 10 min. […] Using a cell counter (type IT, from Coulter Diagnostics, Krefeld), the cell suspension, which is composed of about 90% lymphocytes and 10% monocytes, was adjusted to about 5 million cells/mi. Cell viability was monitored before and after the inhibition experiments using the known lactate dehydrogenase method.\nAt the same time, a solution of leflunomide or leflunomide metabolite in 0.01 ml of dimethylsulfoxide (for the final concentration in each case, see Tab. 1) was added to the cell fraction and the mixture was left at 37° C. for 20 h in a commercially available incubator. […] The control values were determined without the addition of leflunomide or its metabolites and set at 100%."}, "[2]": {"system": "IL1alpha", "experiment": "IL1alpha synthesis and liberation in lipopolysaccharide-stimulated mononuclear cells from human blood (sandwich enzyme immuno test)", "format": "cell-based", "settings": "for activity at 10 µM: concentration 0.01 mmol/l; for activity at 100 µM: concentration 0.1 mmol/l; for effect on the IL1alpha level: summary in words of Table 1", "experimental": "The mononuclear cells from freshly isolated human citrate blood were enriched in accordance with known standard procedures (see Tiku et al., J. Immunol. 136/10 (1986) 3677):\n10 ml of freshly prepared human citrate blood were carefully underlaid with 15 ml of Lynnphoprep^(R) (Molter GmbH, Heidelberg) and then centrifuged at 400 ×g for 40 min. at 20° C. The cell fraction which was visible as a white ring at the phase boundary was withdrawn with the aid of a syringe, diluted 1:1 (v/v) with PM-16 buffer (from Serva Feinbiochemica GmbH & Co. KG, Heidelberg) and then centrifuged, as above, for 10 min. The supernatant was washed with 10 ml of RPMI 1640 buffer (Gibco, Berlin) to which 300 mg/1 L-glutamine had previously been added. The washed cell fraction was taken up in 1 ml of RPMI 1640 to which 300 mg/1 L-glutamine, 25 mmol/1 HEPES (Gibco, Berlin), […] streptomycin and […] penicillin had previously been added. Using a cell counter (type IT, from Coulter Diagnostics, Krefeld), the cell suspension, which is composed of about 90% lymphocytes and 10% monocytes, was adjusted to about 5 million cells/mi. Cell viability was monitored before and after the inhibition experiments using the known lactate dehydrogenase method. In this case, no change in viability was observed.\nThe synthesis and liberation of cellular IL1alpha was induced by adding a solution of 500 ng of lipopolysaccharide (Salmonella abortus equi, Sigma GmbH, Deisenhofen) in 0.01 ml of dimethyl sulfoxide/water (1:10, v/v) to 0.48 ml of the above-described cell fraction. At the same time, a solution of leflunomide or leflunomide metabolite in 0.01 ml of dimethylsulfoxide (for the final concentration in each case, see Tab. 1) was added to the cell fraction and the mixture was left at 37° C. for 20 h in a commercially available incubator. After cooling down to 0° C., the samples were centrifuged for 1 min. in a bench centrifuge and in each case 0.025 ml aliquots of the supernatant were examined for their IL1alpha content using a \"sandwich\" enzyme immuno test kit (from Biermann GmbH, Bad Nauheim) in accordance with the manufacturer's instructions. The control values were determined without the addition of leflunomide or its metabolites and set at 100%. In particular, any possible influence of dimethyl sulfoxide on the IL1alpha level was excluded by appropriate comparative measurements."}, "[3]": {"system": "mononuclear cells", "experiment": "metabolism of leflunomide under the conditions of the cell experiment (HPLC)", "format": "in vitro ADME, human", "settings": "in words; isolated human mononuclear cells"}, "[4]": {"experiment": "metabolism of leflunomide under the conditions of the cell experiment (HPLC)", "format": "in vitro ADME, human", "settings": "human, mononuclear cells; mononuclear cell fraction, incubation conditions of Example 1, HPLC"}, "[5]": {"settings": "Homo sapiens, control without substance = 100%, LPS 500 ng, 37° C., 20 h, read-out: IL1alpha in the supernatant, % +/- standard deviation"}}, "note": "Entries after “also recorded” stand apart in the source; their conditions may differ.", "data": [{"smiles": "Cc1oncc1C(=O)Nc1ccc(C(F)(F)F)cc1", "note": "[Leflunomide, N-(4-trifluoromethylphenyl)-5-methylisoxazole-4-carboxamide]", "values": [{"measurement": "effect on the synthesis and liberation of cytokines from human blood cells", "setting": "[1]", "result": "strong inhibitory effect"}, {"measurement": "activity at 0.1 µM", "setting": "[2]; Homo sapiens, concentration 0.0001 mmol/l, control without substance = 100%, LPS 500 ng, 37° C., 20 h, read-out: IL1alpha in the supernatant, % +/- standard deviation", "result": "83 ± 16", "unit": "%"}, {"measurement": "activity at 5 µM", "setting": "[2]; Homo sapiens, concentration 0.005 mmol/l, control without substance = 100%, LPS 500 ng, 37° C., 20 h, read-out: IL1alpha in the supernatant, % +/- standard deviation", "result": 62, "unit": "%"}, {"measurement": "activity at 10 µM", "setting": "[2]; [5]", "result": "54 ± 5", "unit": "%"}, {"measurement": "activity at 50 µM", "setting": "[2]; Homo sapiens, concentration 0.05 mmol/l, control without substance = 100%, LPS 500 ng, 37° C., 20 h, read-out: IL1alpha in the supernatant, % +/- standard deviation", "result": "22 ± 2", "unit": "%"}, {"measurement": "activity at 100 µM", "setting": "[2]; [5]", "result": "22 ± 5", "unit": "%"}, {"measurement": "effect on the IL1alpha level", "setting": "[2]", "result": "clearly lowered"}, {"measurement": "metabolism of leflunomide under the experimental conditions", "setting": "[3]", "result": "did not, to any appreciable extent, metabolize the leflunomide to its metabolites; also recorded: metabolized only very slowly; also recorded: no appreciable metabolism"}, {"measurement": "half-life", "setting": "[4]", "result": "~10", "unit": "h"}]}, {"smiles": "C/C(O)=C(\\C#N)C(=O)Nc1ccc(C(F)(F)F)cc1", "note": "[Leflunomide metabolite, N-(4-trifluoromethylphenyl)-2-cyano-3-hydroxycrotonamide]", "values": [{"measurement": "effect on the synthesis and liberation of cytokines from human blood cells", "setting": "[1]", "result": "does not exhibit this advantageous effect"}, {"measurement": "activity at 10 µM", "setting": "[2]; [5]", "result": "100 ± 5", "unit": "%"}, {"measurement": "activity at 100 µM", "setting": "[2]; [5]", "result": "98 ± 7", "unit": "%"}, {"measurement": "effect on the IL1alpha level", "setting": "[2]", "result": "practically no effect on the IL1alpha level"}]}]}
